# Results: US20240287076A1, “COMPOUNDS FOR TARGETING DEGRADATION OF BRUTON'S TYROSINE KINASE” (BIOGEN MA INC., priority 2021, published 2024)
# Target: T1, BTK (Homo sapiens, UniProt Q06187)
# T1 construct: The GM01501.3 cell line endogenously expresses BTK with a HiBiT fusion tag via CRISPR knock-in at its C-terminal region; endogenous in cells; host or cells: GM01501.3 (GM01501 cells engineered by CRISPR knock-in of HiBiT at the BTK locus)
# Experiment: BTK degradation assay using the HiBiT Method (Nano-Glo HiBiT Lytic Assay, GM01501.3 cells)
# Type: cell-based
# Settings: HiBiT Degradation on GM01501.3 BTK @ 6 hours
# In short: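 Degradation read-out: HiBiT luminescence after lytic reagent addition, giving DC50. Compounds dosed from 10 μM in 11 half-log steps (duplicate) onto GM01501.3 cells, whose endogenous BTK carries a C-terminal HiBiT knock-in tag; 6 h exposure, 37 °C, 5% CO2.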
# T1 sequence (Q06187 whole entry, the tested form may be a part): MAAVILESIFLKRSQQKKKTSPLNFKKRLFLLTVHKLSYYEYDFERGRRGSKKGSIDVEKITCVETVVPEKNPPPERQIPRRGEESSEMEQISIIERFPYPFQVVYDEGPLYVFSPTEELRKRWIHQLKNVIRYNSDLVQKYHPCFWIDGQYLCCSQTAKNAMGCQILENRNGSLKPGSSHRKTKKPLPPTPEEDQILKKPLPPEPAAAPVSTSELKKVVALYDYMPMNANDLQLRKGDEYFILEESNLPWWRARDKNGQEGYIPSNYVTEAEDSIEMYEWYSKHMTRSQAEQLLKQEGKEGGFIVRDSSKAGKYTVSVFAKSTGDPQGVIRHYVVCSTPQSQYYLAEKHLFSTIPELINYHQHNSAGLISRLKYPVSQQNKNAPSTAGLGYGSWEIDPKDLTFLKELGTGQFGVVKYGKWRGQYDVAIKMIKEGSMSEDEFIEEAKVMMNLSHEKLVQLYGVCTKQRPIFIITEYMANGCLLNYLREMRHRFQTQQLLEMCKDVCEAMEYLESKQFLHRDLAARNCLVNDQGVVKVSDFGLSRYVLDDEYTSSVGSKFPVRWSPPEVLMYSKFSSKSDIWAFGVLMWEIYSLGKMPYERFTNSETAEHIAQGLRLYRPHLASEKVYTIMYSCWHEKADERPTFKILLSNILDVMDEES
row,Compound,DC50 [nM]
1,"Cc1cc(-c2ncnn3cc(-c4ccc(CN5CCOC(c6ccc(NC7CCC(=O)NC7=O)cc6)C5)cc4)cc23)ccc1CNC(=O)c1noc(C(C)(C)C)n1 (centres unmarked) [Example 200, 5-(tert-butyl)-N-(4-(6-(4-((2-(4-((2,6-dioxopiperidin-3-yl)amino)phenyl)morpholino)methyl)phenyl)pyrrolo[2,1-f][1,2,4]triazin-4-yl)-2-methylbenzyl)-1,2,4-oxadiazole-3-carboxamide]",< 100
2,"Cc1cc(-c2ncnn3cc(N4CCN(C(=O)c5cn(CCNC(=O)c6ccc(OC7CCC(=O)NC7=O)cc6)nn5)CC4)cc23)ccc1CNC(=O)c1noc(C(C)(C)C)n1 (centres unmarked) [Example 177, 5-(tert-butyl)-N-(4-(6-(4-(1-(2-(4-((2,6-dioxopiperidin-3-yl)oxy)benzamido)ethyl)-1H-1,2,3-triazole-4-carbonyl)piperazin-1-yl)pyrrolo[2,1-f][1,2,4]triazin-4-yl)-2-methylbenzyl)-1,2,4-oxadiazole-3-carboxamide]",> 1000
3,"Cc1cc(-c2ncnn3cc(-c4cccc(C(C)CN5CCC(c6ccc(C7CCC(=O)NC7=O)cc6)CC5)c4)cc23)ccc1CNC(=O)c1noc(C(C)(C)C)n1 (centres unmarked) [Example 207, 5-(tert-butyl)-N-(4-(6-(3-(1-(4-(4-(2,6-dioxopiperidin-3-yl)phenyl)piperidin-1-yl)propan-2-yl)phenyl)pyrrolo[2,1-f][1,2,4]triazin-4-yl)-2-methylbenzyl)-1,2,4-oxadiazole-3-carboxamide]",< 100
4,Cc1cc(-c2ncnn3cc(-c4ccc(C(=O)NCCc5cccc(NC6CCC(=O)NC6=O)c5)cc4)cc23)ccc1CNC(=O)c1noc(C(C)(C)C)n1 (centres unmarked) [Example 196],< 100
5,"Cc1ccc(C(=O)NCc2ccc(-c3ncnn4cc(-c5ccc(CN6CCC(c7ccc(NC8CCC(=O)NC8=O)cc7)CC6)cc5)cc34)cc2C)c(F)c1 (centres unmarked) [Example 95, N-[[4-[6-[4-[[4-[4-[(2,6-dioxo-3-piperidyl)amino]phenyl]-1-piperidyl]methyl]phenyl]pyrrolo[2,1-f][1,2,4]triazin-4-yl]-2-methyl-phenyl]methyl]-2-fluoro-4-methyl-benzamide]",< 100
6,"Cn1nc(N2CCC(=O)NC2=O)c2ccc(C3CCN(Cc4ccc(-c5cc6nccc(-c7ccc(CNC(=O)N8CC(OC(C)(C)C)C8)c(F)c7)n6n5)cc4F)CC3)cc21 [Example 167, 3-tert-butoxy-N-[[4-[2-[4-[[4-[3-(2,4-dioxohexahydropyrimidin-1-yl)-1-methyl-indazol-6-yl]-1-piperidyl]methyl]-3-fluoro-phenyl]pyrazolo[1,5-a]pyrimidin-7-yl]-2-fluoro-phenyl]methyl]azetidine-1-carboxamide]",< 100
7,"CC(C)(C)c1nc(C(=O)NCc2ccc(-c3ncnn4cc(-c5ccc(CN6CCC(c7ccc(NC8CCC(=O)NC8=O)nc7)CC6)cc5)cc34)cc2F)no1 (centres unmarked) [Example 32, 5-tert-butyl-N-[[4-[6-[4-[[4-[6-[(2,6-dioxo-3-piperidyl)amino]-3-pyridyl]-1-piperidyl]methyl]phenyl]pyrrolo[2,1-f][1,2,4]triazin-4-yl]-2-fluoro-phenyl]methyl]-1,2,4-oxadiazole-3-carboxamide]",< 100
8,CC(C)(C)c1nc(C(=O)NCc2ccc(-c3ncnn4cc(-c5ccc(CN6CCOc7cc(OC8CCC(=O)NC8=O)ccc7C6)cn5)cc34)cc2F)no1 (centres unmarked) [Example 228],100 to 500

# The remaining lines, values ahead:
row,DC50 [nM],Compound
1,< 100,"Cc1cc(-c2ncnn3cc(-c4ccc(OCCN5CCC(c6ccc(NC7CCC(=O)NC7=O)cc6)CC5)cc4)cc23)ccc1CNC(=O)c1noc(C(C)(C)C)n1 (centres unmarked) [Example 105, 5-tert-butyl-N-[[4-[6-[4-[2-[4-[4-[(2,6-dioxo-3-piperidyl)amino]phenyl]-1-piperidyl]ethoxy]phenyl]pyrrolo[2,1-f][1,2,4]triazin-4-yl]-2-methyl-phenyl]methyl]-1,2,4-oxadiazole-3-carboxamide]"
2,< 100,"Cc1cc(-c2ncnn3cc(CCN4CCC(c5ccc(C6CCC(=O)NC6=O)cc5)CC4)cc23)ccc1CNC(=O)c1noc(C(C)(C)C)n1 (centres unmarked) [Example 116, 5-tert-butyl-N-[[4-[6-[2-[4-[4-(2,6-dioxo-3-piperidyl)phenyl]-1-piperidyl]ethyl]pyrrolo[2,1-f][1,2,4]triazin-4-yl]-2-methyl-phenyl]methyl]-1,2,4-oxadiazole-3-carboxamide]"
3,< 100,"Cc1cc(-c2ncnn3cc(-c4ccn5cc(CN6CCC(c7ccc(C8CCC(=O)NC8=O)cc7)CC6)nc5c4)cc23)ccc1CNC(=O)c1noc(C(C)(C)C)n1 (centres unmarked) [Example 211, 5-(tert-butyl)-N-(4-(6-(2-((4-(4-(2,6-dioxopiperidin-3-yl)phenyl)piperidin-1-yl)methyl)imidazo[1,2-a]pyridin-7-yl)pyrrolo[2,1-f][1,2,4]triazin-4-yl)-2-methylbenzyl)-1,2,4-oxadiazole-3-carboxamide]"
4,< 100,"Cc1cc(-c2ncnn3cc(CCN4CC[C@@H](c5ccc6c(N7CCC(=O)NC7=O)nn(C)c6c5)C4)cc23)ccc1CNC(=O)c1noc(C(C)(C)C)n1 (single isomer, unassigned) [Example 266]"
5,< 100,"Cn1nc(N2CCC(=O)NC2=O)c2ccc(C3CCN(CCCCc4cc5c(-c6ccc7c(c6)OCCCC7NC(=O)c6noc(C(C)(C)C)n6)ncnn5c4)CC3)cc21 (centres unmarked) [Example 290, 5-(tert-butyl)-N-(8-(6-(4-(4-(3-(2,4-dioxotetrahydropyrimidin-1(2H)-yl)-1-methyl-1H-indazol-6-yl)piperidin-1-yl)butyl)pyrrolo[2,1-f][1,2,4]triazin-4-yl)-2,3,4,5-tetrahydrobenzo[b]oxepin-5-yl)-1,2,4-oxadiazole-3-carboxamide]"
6,< 100,"Cc1cc(-c2ncnn3cc(CCN4CCC(c5ccc(NC6CCC(=O)NC6=O)cc5)C(F)(F)C4)cc23)ccc1CNC(=O)c1noc(C(C)(C)C)n1 (centres unmarked) [Example 275, 5-(tert-butyl)-N-(4-(6-(2-(4-(4-((2,6-dioxopiperidin-3-yl)amino)phenyl)-3,3-difluoropiperidin-1-yl)ethyl)pyrrolo[2,1-f][1,2,4]triazin-4-yl)-2-methylbenzyl)-1,2,4-oxadiazole-3-carboxamide]"
7,< 100,"CC(C)(C)c1nc(C(=O)NCc2ccc(-c3ncnn4cc(CCCCN5CCC(c6ccc(NC7CCC(=O)NC7=O)nc6)CC5)cc34)cc2F)no1 (centres unmarked) [Example 138, 5-tert-butyl-N-[[4-[6-[4-[4-[6-[(2,6-dioxo-3-piperidyl)amino]-3-pyridyl]-1-piperidyl]butyl]pyrrolo[2,1-f][1,2,4]triazin-4-yl]-2-fluoro-phenyl]methyl]-1,2,4-oxadiazole-3-carboxamide]"
8,< 100,"CC(C)(C)c1nc(C(=O)NCc2ccc(-c3ncnn4cc(CCC(F)CN5CCC(c6ccc(NC7CCC(=O)NC7=O)cc6)CC5)cc34)cc2F)no1 (centres unmarked) [Example 170, 5-tert-butyl-N-[[4-[6-[4-[4-[4-[(2,6-dioxo-3-piperidyl)amino]phenyl]-1-piperidyl]-3-fluoro-butyl]pyrrolo[2,1-f][1,2,4]triazin-4-yl]-2-fluoro-phenyl]methyl]-1,2,4-oxadiazole-3-carboxamide]"
9,< 100,"Cc1cc(-c2ncnn3cc(CCN4CCC(c5ccc6c(N7CCC(=O)NC7=O)nn(C)c6c5)CC4)cc23)ccc1CNC(=O)c1noc(C2(C)CCC2)n1 [Example 257, N-(4-(6-(2-(4-(3-(2,4-dioxotetrahydropyrimidin-1(2H)-yl)-1-methyl-1H-indazol-6-yl)piperidin-1-yl)ethyl)pyrrolo[2,1-f][1,2,4]triazin-4-yl)-2-methylbenzyl)-5-(1-methylcyclobutyl)-1,2,4-oxadiazole-3-carboxamide]"
